Assay results: US8983257B2, “Therapeutic light delivery apparatus, method, and system” (Nomir Medical Technologies, Inc., priority 2002, dated 2015)
“And” between values parts separate entries of the source, which are not always exact repeats. Equal values may be shown once. “Also recorded” adds a separate entry of the source.

Assays:
Format in all cases: cell-based, Staphylococcus aureus
MRSA [1] = assay: MRSA CFU count with methicillin after sub-lethal NIMELS laser (Example X); conditions: methicillin at resistant MIC just below effectiveness level
From the text: The following illustrates the general antibacterial methods according to the invention, using a MRSA model for the in vitro Experiments V and VIII-XII.
a) μ1 is sub-lethal dosimetry from the NIMEL laser system on MRSA as a control and;

MRSA [2] = assay: MRSA/antimicrobial potentiation Experiment 1: CFU with or without 30 μg/ml methicillin, laser dosages A1 to H1; conditions: for fewer CFU in the laser treated samples compared to the untreated controls: methicillin plates (30 μg/ml)
Procedure: Four separate experiments have been performed.
Eight different laser dosages were used to treat a saline-suspension of logarithmically growing MRSA, labeled A1 to H1.
(§1) The treated and a control untreated suspension were diluted and plated in triplicate on trypic soy agar with or without 30 μg/ml methicillin.
(§2) After 24 hrs of growth at 37° C. colonies were counted.
CFU (colony forming units) were compared between the plates with and without methicillin for both control (untreated) and treated MRSA.

MRSA [3] = assay: MRSA/antimicrobial potentiation Experiment 2: CFU with or without 30 μg/ml methicillin, laser dosages A2 to H2; conditions: for Fold increase in methicillin sensitivity: 30 μg/ml methicillin
Procedure: Eight different laser dosages based on an effective dose established in experiment 1 and previously were used to treat a saline-suspension of logarithmically growing MRSA, labeled A2 to H2.
as §1, §2

MRSA [4] = assay: MRSA/antimicrobial potentiation Experiment 3: CFU with or without 30 μg/ml methicillin, laser dosages A3 to H3; conditions: for Fold increase in methicillin sensitivity: 30 μg/ml methicillin
Procedure: Eight different laser dosages based on an effective dose established in experiments 1 and 2 and previously were used to treat a saline-suspension of logarithmically growing MRSA, labeled A3 to H3.
[…] After 24 hrs of growth at 37° C. colonies were counted.

MRSA [5] = assay: MRSA/antimicrobial potentiation Experiment 4: CFU with or without methicillin, penicillin G or erythromycin, groups A4 to F4; conditions: for CFU: agar with 30 μg/ml methicillin
From the text: Two different laser dosages based on an effective dose established in previous experiments were used to treat a saline-suspension of logarithmically growing MRSA, labeled A4 to F4.

## COc1cccc(OC)c1C(=O)N[C@@H]1C(=O)N2[C@@H]1SC(C)(C)[C@@H]2C(=O)O [Methicillin]
MRSA [1]
  effect of methicillin after sub-lethal NIMELS irradiation on growth of MRSA colonies (in words): potentiated by sub-lethal NIMELS dosimetry; also recorded: produces a deleterious effect after sub-lethal NIMEL irradiation on normal growth of MRSA colonies
MRSA [2]; Exp (laser treated), laser dosage F1, with 30 μg/ml methicillin
  AVG (CFU): 197 CFU
MRSA [2]; condition A1
  fewer CFU in the laser treated samples compared to the untreated controls: 30%
MRSA [2]; condition B1
  fewer CFU in the laser treated samples compared to the untreated controls: 33%
MRSA [2]; condition C1
  fewer CFU in the laser treated samples compared to the untreated controls: 67%
MRSA [2]; treatments performed on sample A1, B1 and C1
  sensitization of MRSA by laser treatment (in words): sensitized the MRSA to the effects of methicillin
MRSA [3]; A2, Exp (laser treated), plates with 30 μg/ml methicillin
  CFU AVG: 41
MRSA [3]; CFU on plates with and without 30 μg/ml methicillin, groups A2 to H2
  effectiveness of methicillin in laser treated samples (in words): significant increase in the effectiveness of methicillin in all laser treated samples with the exception of A2 and B2
MRSA [3]; D2, Cont (untreated suspension), plates with 30 μg/ml methicillin
  CFU AVG: 52
MRSA [3]; D2, Exp (laser treated), plates with 30 μg/ml methicillin
  CFU AVG: 2.3
MRSA [3]; E2, Exp (laser treated), plates with 30 μg/ml methicillin
  CFU AVG: 2.7
MRSA [3]; F2, Cont (untreated suspension), plates with 30 μg/ml methicillin
  CFU AVG: 71
MRSA [3]; G2, Exp (laser treated), plates with 30 μg/ml methicillin
  CFU AVG: 8.3
MRSA [3]; H2, Cont (untreated suspension), plates with 30 μg/ml methicillin, single plates
  CFU: 82
MRSA [3]; laser dosage grouping A2
  Fold increase in methicillin sensitivity: 0.84
MRSA [3]; laser dosage grouping B2
  Fold increase in methicillin sensitivity: 0.91
MRSA [3]; laser dosage grouping C2
  Fold increase in methicillin sensitivity: 3.20
MRSA [3]; laser dosage grouping D2
  Fold increase in methicillin sensitivity: 2.44
MRSA [3]; laser dosage grouping E2
  Fold increase in methicillin sensitivity: 4.33
MRSA [3]; laser dosage grouping F2
  Fold increase in methicillin sensitivity: 2.13
MRSA [3]; laser dosage grouping G2
  Fold increase in methicillin sensitivity: 3.47
MRSA [3]; laser dosage grouping H2
  Fold increase in methicillin sensitivity: 1.62
MRSA [4]; B3, Exp (laser treated), plates with 30 μg/ml methicillin
  CFU AVG: 19
MRSA [4]; CFU on plates with and without 30 μg/ml methicillin, groups A3 to H3
  effectiveness of methicillin in laser treated samples (in words): significant increase in the effectiveness of methicillin in all laser treated samples
MRSA [4]; D3, Cont (untreated suspension), plates with 30 μg/ml methicillin, single plates
  CFU: 58
MRSA [4]; D3, Exp (laser treated), plates with 30 μg/ml methicillin
  CFU AVG: 3.6
MRSA [4]; F3, Exp (laser treated), plates with 30 μg/ml methicillin
  CFU AVG: 9.8
MRSA [4]; G3, Exp (laser treated), plates with 30 μg/ml methicillin
  CFU AVG: 8.4
MRSA [4]; H3, Exp (laser treated), plates with 30 μg/ml methicillin
  CFU AVG: 8.4
MRSA [4]; laser dosage grouping A3
  Fold increase in methicillin sensitivity: 1.98
MRSA [4]; laser dosage grouping B3
  Fold increase in methicillin sensitivity: 1.62
MRSA [4]; laser dosage grouping C3
  Fold increase in methicillin sensitivity: 1.91
MRSA [4]; laser dosage grouping D3
  Fold increase in methicillin sensitivity: 2.59
MRSA [4]; laser dosage grouping E3
  Fold increase in methicillin sensitivity: 2.09
MRSA [4]; laser dosage grouping F3
  Fold increase in methicillin sensitivity: 2.08
MRSA [4]; laser dosage grouping G3
  Fold increase in methicillin sensitivity: 3.16
MRSA [4]; laser dosage grouping H3
  Fold increase in methicillin sensitivity: 2.97
MRSA [5]; Group A4, Cont (no laser), replicate plates 1-5, 24 hrs 37° C.
  CFU: 97 CFU and 90 CFU
MRSA [5]; Group A4, Exp (laser treated), replicate plates 1-5
  CFU: 37 CFU and 33 CFU and 36 CFU (2×) and 39 CFU
MRSA [5]; Group B4, Exp (laser treated), replicate plates 1-5
  CFU: 46 CFU (2×) and 34 CFU and 42 CFU and 44 CFU
MRSA [5]; sub-lethal NIMELS dosimetry, bar chart figure
  synergy or potentiation with NIMELS in growth inhibition of MRSA colonies (in words): synergistic effects; also recorded: potentiated by sub-lethal NIMELS dosimetry
MRSA [5]; temperature levels not lethal to the organism
  reversal of MRSA resistance in vitro by dual wavelength NOVEON laser (in words): successful reversal of MRSA resistance
